Laboratory results as given in patent US10787446B2 (GENENTECH, INC., priority 2015, dated 2020).

molecular target: T1, hNav1.7 and the β1 subunit (Homo sapiens, UniProt Q15858); test: Tritiated compound competitive binding to membranes from cells heterologously expressing hNav1.7 and the β1 subunit (LBA); settings: competition with 100 pM [3H]compound, 18 h, room temperature; IC50 by 4 parameter logistic model
T1 construct: expressed in transfected cells
In short: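 Membranes were incubated 18 h at room temperature with 100 pM [3H]-labelled NaV1.7 inhibitor and increasing test compound in 100 mM NaCl, 20 mM Tris HCl, pH 7.4. Bound radioligand was filtered on PEI-soaked GF/C, washed, and counted by scintillation. IC50 from a 4-parameter logistic fit of % inhibition.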

T1 sequence (Q15858 whole entry): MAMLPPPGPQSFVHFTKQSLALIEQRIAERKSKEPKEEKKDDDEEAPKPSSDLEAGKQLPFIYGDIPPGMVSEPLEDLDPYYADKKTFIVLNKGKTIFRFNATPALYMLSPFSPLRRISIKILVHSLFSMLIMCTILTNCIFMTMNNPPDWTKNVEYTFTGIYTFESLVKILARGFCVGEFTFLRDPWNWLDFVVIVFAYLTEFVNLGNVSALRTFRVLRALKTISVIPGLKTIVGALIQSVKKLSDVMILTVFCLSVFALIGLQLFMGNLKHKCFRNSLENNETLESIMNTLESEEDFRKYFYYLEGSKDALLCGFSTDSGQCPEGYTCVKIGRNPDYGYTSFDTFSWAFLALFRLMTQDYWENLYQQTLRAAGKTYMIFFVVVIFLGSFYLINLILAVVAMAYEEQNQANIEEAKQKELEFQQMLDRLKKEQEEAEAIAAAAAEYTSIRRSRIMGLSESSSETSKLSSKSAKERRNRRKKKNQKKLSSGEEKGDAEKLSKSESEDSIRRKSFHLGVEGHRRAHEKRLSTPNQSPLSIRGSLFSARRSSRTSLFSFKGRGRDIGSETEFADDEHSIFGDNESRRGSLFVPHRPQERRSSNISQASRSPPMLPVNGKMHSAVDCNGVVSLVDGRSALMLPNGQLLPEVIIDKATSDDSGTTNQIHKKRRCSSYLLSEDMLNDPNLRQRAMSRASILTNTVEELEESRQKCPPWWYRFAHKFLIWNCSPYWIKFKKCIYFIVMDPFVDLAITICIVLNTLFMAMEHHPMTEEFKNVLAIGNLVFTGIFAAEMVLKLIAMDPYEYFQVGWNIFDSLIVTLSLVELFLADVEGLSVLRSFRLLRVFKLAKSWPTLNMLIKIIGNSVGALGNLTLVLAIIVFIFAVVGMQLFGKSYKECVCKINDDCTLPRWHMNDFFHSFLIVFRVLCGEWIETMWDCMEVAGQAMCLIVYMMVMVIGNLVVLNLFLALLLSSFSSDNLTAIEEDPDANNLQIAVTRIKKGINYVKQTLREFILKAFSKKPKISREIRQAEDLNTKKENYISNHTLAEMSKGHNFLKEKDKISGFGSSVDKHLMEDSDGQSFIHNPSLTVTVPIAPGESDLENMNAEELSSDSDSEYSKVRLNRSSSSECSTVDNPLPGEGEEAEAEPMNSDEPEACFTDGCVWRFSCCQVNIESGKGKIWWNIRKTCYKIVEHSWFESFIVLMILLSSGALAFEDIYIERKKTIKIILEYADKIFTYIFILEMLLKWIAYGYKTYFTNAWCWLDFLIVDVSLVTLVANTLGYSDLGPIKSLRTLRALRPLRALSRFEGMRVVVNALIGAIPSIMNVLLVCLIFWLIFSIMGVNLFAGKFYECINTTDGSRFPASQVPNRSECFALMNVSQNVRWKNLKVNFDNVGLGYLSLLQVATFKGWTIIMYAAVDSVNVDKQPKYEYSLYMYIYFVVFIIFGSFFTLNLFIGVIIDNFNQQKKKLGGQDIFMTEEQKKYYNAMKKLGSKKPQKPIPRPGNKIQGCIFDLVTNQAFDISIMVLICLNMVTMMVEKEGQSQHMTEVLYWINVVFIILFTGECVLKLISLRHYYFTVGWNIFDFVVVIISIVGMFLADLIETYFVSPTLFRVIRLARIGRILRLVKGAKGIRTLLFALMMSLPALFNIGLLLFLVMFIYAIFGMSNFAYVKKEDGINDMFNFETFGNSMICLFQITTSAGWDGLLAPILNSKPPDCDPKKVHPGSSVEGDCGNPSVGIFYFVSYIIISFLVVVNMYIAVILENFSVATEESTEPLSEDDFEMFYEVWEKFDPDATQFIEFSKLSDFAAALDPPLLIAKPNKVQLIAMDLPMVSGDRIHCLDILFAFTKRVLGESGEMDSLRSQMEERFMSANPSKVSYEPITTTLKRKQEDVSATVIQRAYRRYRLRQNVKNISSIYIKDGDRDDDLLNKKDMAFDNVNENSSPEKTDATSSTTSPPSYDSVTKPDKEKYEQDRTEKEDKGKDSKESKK
T1 sequence (Q07699 19-218 partner): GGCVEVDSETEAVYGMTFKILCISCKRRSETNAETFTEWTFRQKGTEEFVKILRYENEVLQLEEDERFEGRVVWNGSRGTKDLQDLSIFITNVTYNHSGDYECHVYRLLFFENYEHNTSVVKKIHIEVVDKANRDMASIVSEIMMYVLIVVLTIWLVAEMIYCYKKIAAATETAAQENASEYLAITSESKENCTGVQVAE

First: O=S(=O)(Nc1ncns1)c1ccc2c(c1)OCC[C@@H]2N1CC[C@@H](C(F)(F)F)C[C@H]1c1ccc(F)c(F)c1 [Example 106, (S)-4-((2S,4R)-2-(3,4-difluorophenyl)-4-(trifluoromethyl)piperidin-1-yl)-N-(1,2,4-thiadiazol-5-yl)chroman-7-sulfonamide]
Second: O=S(=O)(Nc1ncns1)c1ccc2c(c1)OCC[C@@H]2N1CC[C@@H](C(F)(F)F)C[C@@H]1c1ccc(F)c(F)c1 [Example 107, (S)-4-((2R,4R)-2-(3,4-difluorophenyl)-4-(trifluoromethyl)piperidin-1-yl)-N-(1,2,4-thiadiazol-5-yl)chroman-7-sulfonamide]
The “Nav1.7 (LBA)” value of the first is 1200-fold lower: 0.0016 µM for the first, 2.0 µM for the second.

Going from `O=S(=O)(Nc1ncns1)c1cc(F)c(CN2CCC3(CC3)C[C@H]2c2ccccc2)cc1F` [Example 110, (S)-2,5-difluoro-4-((5-phenyl-6-azaspiro[2.5]octan-6-yl)methyl)-N-(1,2,4-thiadiazol-5-yl)benzenesulfonamide] to `O=S(=O)(Nc1ncns1)c1cc(F)c(CN2CC[C@@H](O)C[C@H]2c2ccccc2)cc1F` [Example 114, 2,5-Difluoro-4-(((2S,4R)-4-hydroxy-2-phenylpiperidin-1-yl)methyl)-N-(1,2,4-thiadiazol-5-yl)benzenesulfonamide], the “Nav1.7 (LBA)” value rises from 0.337 µM to 9.65 µM (29-fold).

Going from `O=S(=O)(Nc1ncns1)c1cc(F)c(CN2CC[C@H](OC(F)(F)F)C[C@@H]2c2ccccc2)cc1F` [Example 112, 2,5-Difluoro-4-(((2R,4S)-2-phenyl-4-(trifluoromethoxy)piperidin-1-yl)methyl)-N-(1,2,4-thiadiazol-5-yl)benzenesulfonamide] to `N#Cc1cc(S(=O)(=O)Nc2ncns2)ccc1CN1CC[C@@H](C(F)(F)F)C[C@H]1c1ccccc1` [Example 119, 3-Cyano-4-(((2S,4R)-2-phenyl-4-(trifluoromethyl)piperidin-1-yl)methyl)-N-(1,2,4-thiadiazol-5-yl)benzenesulfonamide], the “Nav1.7 (LBA)” value falls from 4.21 µM to 0.0181 µM (230-fold).

`Nc1[nH]ncc1C1CCCCN1Cc1cc(F)c(S(=O)(=O)Nc2ncns2)cc1F` (stereo not shown) [Example 118, 4-((2-(5-Amino-1H-pyrazol-4-yl)piperidin-1-yl)methyl)-2,5-difluoro-N-(1,2,4-thiadiazol-5-yl)benzenesulfonamide] and `O=S(=O)(Nc1ncns1)c1cc2c(cc1F)[C@H](N1CC[C@@](O)(C(F)(F)F)C[C@H]1c1ccc(F)cc1)CCO2` [Example 171, (R)-6-fluoro-4-((2S,4S)-2-(4-fluorophenyl)-4-hydroxy-4-(trifluoromethyl)piperidin-1-yl)-N-(1,2,4-thiadiazol-5-yl)chroman-7-sulfonamide] are within 1.5-fold of each other in “Nav1.7 (LBA)” value: 2.26 µM for the first, 2.028 µM for the second.

First: CN(Cc1ccccc1)[C@H]1CCOc2cc(S(=O)(=O)Nc3ncns3)ccc21 [Example 120, (S)-4-(benzyl(methyl)amino)-N-(1,2,4-thiadiazol-5-yl)chroman-7-sulfonamide]
Second: N#C[C@@H]1CCN([C@H]2CCOc3cc(S(=O)(=O)Nc4ncns4)ccc32)[C@H](c2ccc(F)cc2)C1 [Example 177, (S)-4-((2S,4R)-4-cyano-2-(4-fluorophenyl)piperidin-1-yl)-N-(1,2,4-thiadiazol-5-yl)chroman-7-sulfonamide]
The “Nav1.7 (LBA)” value of the first is 64-fold higher: 0.376 µM for the first, 0.00584 µM for the second.

Compared with `N#CC1CCN([C@H]2CCOc3cc(S(=O)(=O)Nc4ncns4)ccc32)CC1` [Example 147, (S)-4-(4-cyanopiperidine-1-yl)-N-(1,2,4-thiadiazol-5-yl)chromane-7-sulfonamide], `O=S(=O)(Nc1ncns1)c1ccc2c(c1)OCC[C@@H]2N1CCC(C(F)F)CC1` [Example 150, (S)-4-(4-(difluoromethyl)piperidin-1-yl)-N-(1,2,4-thiadiazol-5-yl)chromane-7-sulfonamide] is 3.7-fold lower in “Nav1.7 (LBA)” value: 5.36 µM for the first, 1.44 µM for the second.

First: CC1(C#N)CCN([C@H]2CCOc3cc(S(=O)(=O)Nc4ncns4)ccc32)CC1 [Example 149, (S)-4-(4-cyano-4-methylpiperidin-1-yl)-N-(1,2,4-thiadiazol-5-yl)chromane-7-sulfonamide]
Second: N#CC1CC12CCN([C@H]1CCOc3cc(S(=O)(=O)Nc4ncns4)ccc31)CC2 (stereo partly shown) [Example 154]
The “Nav1.7 (LBA)” value of the first is 1.9-fold higher: 8.6 µM for the first, 4.52 µM for the second.

Going from `O=S(=O)(Nc1ncns1)c1ccc2c(c1)OCC[C@@H]2N1CCC2(CC1)COC2` [Example 153, (S)-4-(2-oxa-7-azaspiro[3.5]nonan-7-yl)-N-(1,2,4-thiadiazol-5-yl)chromane-7-sulfonamide] to `O=S(=O)(Nc1ncns1)c1ccc2c(c1)OCC[C@H]2N1CC[C@@](O)(C(F)(F)F)C[C@H]1c1ccc(F)cc1` [Example 167, (R)-4-((2S,4S)-2-(4-fluorophenyl)-4-hydroxy-4-(trifluoromethyl)piperidin-1-yl)-N-(1,2,4-thiadiazol-5-yl)chroman-7-sulfonamide], the “Nav1.7 (LBA)” value falls from 5.5 µM to 3 µM (1.8-fold).

Compared with `Cn1nccc1[C@@H]1C[C@H](C(F)(F)F)CCN1[C@@H]1CCOc2cc(S(=O)(=O)Nc3nccs3)c(F)cc21` [Example 159], `Cn1nccc1[C@H]1C[C@@H](C(F)(F)F)CCN1[C@@H]1CCOc2cc(S(=O)(=O)Nc3nccs3)c(F)cc21` [Example 160] is 2.5-fold higher in “Nav1.7 (LBA)” value: 0.18 µM for the first, 0.442 µM for the second.

First: CS(=O)(=O)[C@@H]1CCN([C@H]2CCOc3cc(S(=O)(=O)Nc4ncns4)ccc32)[C@H](c2ccc(F)cc2)C1 [Example 161, (S)-4-((2S,4R)-2-(4-fluorophenyl)-4-(methylsulfonyl)piperidin-1-yl)-N-(1,2,4-thiadiazol-5-yl)chroman-7-sulfonamide]
Second: CS(=O)(=O)[C@@H]1CCN([C@@H]2CCOc3cc(S(=O)(=O)Nc4ncns4)ccc32)[C@H](c2ccc(F)cc2)C1 [Example 162, (R)-4-((2S,4R)-2-(4-fluorophenyl)-4-(methylsulfonyl)piperidin-1-yl)-N-(1,2,4-thiadiazol-5-yl)chroman-7-sulfonamide]
The “Nav1.7 (LBA)” value of the first is 350-fold lower: 0.00853 µM for the first, 3 µM for the second.

First: CS(=O)(=O)[C@H]1CCN([C@H]2CCOc3cc(S(=O)(=O)Nc4ncns4)ccc32)[C@@H](c2ccc(F)cc2)C1 [Example 163, (S)-4-((2R,4S)-2-(4-fluorophenyl)-4-(methylsulfonyl)piperidin-1-yl)-N-(1,2,4-thiadiazol-5-yl)chroman-7-sulfonamide]
Second: CS(=O)(=O)[C@H]1CCN([C@@H]2CCOc3cc(S(=O)(=O)Nc4ncns4)ccc32)[C@@H](c2ccc(F)cc2)C1 [Example 164, (R)-4-((2R,4S)-2-(4-fluorophenyl)-4-(methylsulfonyl)piperidin-1-yl)-N-(1,2,4-thiadiazol-5-yl)chroman-7-sulfonamide]
The “Nav1.7 (LBA)” value of the first is 9.3-fold lower: 0.0223 µM for the first, 0.208 µM for the second.

Compared with `CS(=O)(=O)[C@@H]1CCN([C@@H]2CCOc3cc(S(=O)(=O)Nc4nccs4)c(F)cc32)[C@H](c2ccc(F)cc2)C1` [Example 165, (R)-6-fluoro-4-((2S,4R)-2-(4-fluorophenyl)-4-(methylsulfonyl)piperidin-1-yl)-N-(thiazol-2-yl)chroman-7-sulfonamide], `CS(=O)(=O)[C@@H]1CCN([C@H]2CCOc3cc(S(=O)(=O)Nc4nccs4)c(F)cc32)[C@H](c2ccc(F)cc2)C1` [Example 166, (S)-6-fluoro-4-((2S,4R)-2-(4-fluorophenyl)-4-(methylsulfonyl)piperidin-1-yl)-N-(thiazol-2-yl)chroman-7-sulfonamide] is 480-fold lower in “Nav1.7 (LBA)” value: 1.01 µM for the first, 0.00212 µM for the second.

First: O=S(=O)(Nc1ncns1)c1ccc2c(c1)OCC[C@@H]2N1CC[C@@](O)(C(F)(F)F)C[C@H]1c1ccc(F)cc1 [Example 168, (S)-4-((2S,4S)-2-(4-fluorophenyl)-4-hydroxy-4-(trifluoromethyl)piperidin-1-yl)-N-(1,2,4-thiadiazol-5-yl)chroman-7-sulfonamide]
Second: O=S(=O)(Nc1ncns1)c1ccc2c(c1)OCC[C@@H]2N1CC[C@](O)(C(F)(F)F)C[C@@H]1c1ccc(F)cc1 [Example 169, (S)-4-((2R,4R)-2-(4-fluorophenyl)-4-hydroxy-4-(trifluoromethyl)piperidin-1-yl)-N-(1,2,4-thiadiazol-5-yl)chroman-7-sulfonamide]
The “Nav1.7 (LBA)” value of the first is 78-fold lower: 0.000878 µM for the first, 0.0682 µM for the second.

First: O=S(=O)(Nc1ncns1)c1ccc2c(c1)OCC[C@H]2N1CC[C@](O)(C(F)(F)F)C[C@@H]1c1ccc(F)cc1 [Example 170, (R)-4-((2R,4R)-2-(4-fluorophenyl)-4-hydroxy-4-(trifluoromethyl)piperidin-1-yl)-N-(1,2,4-thiadiazol-5-yl)chroman-7-sulfonamide]
Second: O=S(=O)(Nc1ncns1)c1ccc2c(c1)OCC[C@H]2N1CC[C@@H](OC(F)(F)F)C[C@H]1c1ccc(F)cc1 [Example 173, (R)-4-((2S,4R)-2-(4-fluorophenyl)-4-(trifluoromethoxy)piperidin-1-yl)-N-(1,2,4-thiadiazol-5-yl)chroman-7-sulfonamide]
The “Nav1.7 (LBA)” value of the first is 200-fold higher: 0.175 µM for the first, 0.000895 µM for the second.

Compared with `O=S(=O)(Nc1ncns1)c1ccc2c(c1)OCC[C@@H]2N1CC[C@@H](OC(F)(F)F)C[C@H]1c1ccc(F)cc1` [Example 174, (S)-4-((2S,4R)-2-(4-fluorophenyl)-4-(trifluoromethoxy)piperidin-1-yl)-N-(1,2,4-thiadiazol-5-yl)chroman-7-sulfonamide], `O=S(=O)(Nc1ncns1)c1ccc2c(c1)OCC[C@@H]2N1CC[C@H](OC(F)(F)F)C[C@@H]1c1ccc(F)cc1` [Example 175, (S)-4-((2R,4S)-2-(4-fluorophenyl)-4-(trifluoromethoxy)piperidin-1-yl)-N-(1,2,4-thiadiazol-5-yl)chroman-7-sulfonamide] is 77-fold lower in “Nav1.7 (LBA)” value: 0.235 µM for the first, 0.00305 µM for the second.

In the case of `O=S(=O)(Nc1ncns1)c1ccc2c(c1)OCC[C@H]2N1CC[C@H](OC(F)(F)F)C[C@@H]1c1ccc(F)cc1` [Example 176, (R)-4-((2R,4S)-2-(4-fluorophenyl)-4-(trifluoromethoxy)piperidin-1-yl)-N-(1,2,4-thiadiazol-5-yl)chroman-7-sulfonamide], the “Nav1.7 (LBA)” value is reported as 0.0248 µM.
